Measured values as given in patent US20240002391A1, “4-ALKOXYPYRROLO[2,1-F][1,2,4]TRIAZINES AND PREPARATION AND USES THEREOF” (BioSplice Therapeutics, Inc., priority 2022, published 2024).

Molecular target: recombinant DYRK1A kinase (Homo sapiens (Human), UniProt Q13627)
Assay: DYRK1A kinase assay (Ser/Thr 18 peptide Z-lyte FRET)
Type: biochemical
Conditions: DYRK1A kinase activity, Z-lyte Ser/Thr 18 peptide, 15 μM ATP; method text calls the value IC50; read-out: EC50 (the source's name)
Method in brief: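 IC50 from non-linear fits of percent phosphorylation, derived from coumarin/fluorescein emission ratio after 1 h protease development. Kinase reaction: 1 h room temperature, 15 μM ATP, 4 μM Ser/Thr peptide 18, 0.25 μg/mL recombinant DYRK1A, duplicate 11-point 1:3 dilutions from 10 μM.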

IC50 [nM] | Compound
2.6 | COc1nc(N[C@@H]2CCN(CCO)CC2(F)F)nn2ccc(-c3cc(F)c4nc(C)n(C(C)C)c4c3)c12 [Compound 549, (R)-2-(3,3-Difluoro-4-((5-(4-fluoro-1-isopropyl-2-methyl-1H-benzo[d]imidazol-6-yl)-4-methoxypyrrolo[2,1-f][1,2,4]triazin-2-yl)amino)piperidin-1-yl)ethan-1-ol]
1.6 | COc1nc(N[C@@H]2CCN(C(C)=O)CC2(F)F)nn2ccc(-c3cc(F)c4nc(C)n(C(C)C)c4c3)c12 [Compound 550, (R)-1-(3,3-Difluoro-4-((5-(4-fluoro-1-isopropyl-2-methyl-1H-benzo[d]imidazol-6-yl)-4-methoxypyrrolo[2,1-f][1,2,4]triazin-2-yl)amino)piperidin-1-yl)ethan-1-one]
1.6 | COc1nc(N[C@@H]2CCN(C3COC3)CC2(F)F)nn2ccc(-c3cc(F)c4nc(C)n(C(C)C)c4c3)c12 [Compound 551, (R)—N-(3,3-Difluoro-1-(oxetan-3-yl)piperidin-4-yl)-5-(4-fluoro-1-isopropyl-2-methyl-1H-benzo[d]imidazol-6-yl)-4-methoxypyrrolo[2,1-f][1,2,4]triazin-2-amine]
7.7 | COc1nc(N[C@H]2CC[C@](C)(O)CC2)nn2ccc(-c3ccn4ncnc4c3)c12 [Compound 554, (1r,4r)-4-((5-([1,2,4]Triazolo[1,5-a]pyridin-7-yl)-4-methoxypyrrolo[2,1-f][1,2,4]triazin-2-yl)amino)-1-methylcyclohexan-1-ol]
5 | CCO[C@H]1C[C@@H](Nc2nc(OC)c3c(-c4ccc5ncnn5c4)ccn3n2)C1 [Compound 555, 5-([1,2,4]Triazolo[1,5-a]pyridin-6-yl)-N-(cis-3-ethoxycyclobutyl)-4-methoxypyrrolo[2,1-f][1,2,4]triazin-2-amine]
1.1 | COc1nc(N[C@H]2C[C@@](C)(NC(=O)C3(C#N)CC3)C2)nn2ccc(-c3ccc4ncnn4c3)c12 [Compound 562, N-((1s,3s)-3-((5-([1,2,4]Triazolo[1,5-a]pyridin-6-yl)-4-methoxypyrrolo[2,1-f][1,2,4]triazin-2-yl)amino)-1-methylcyclobutyl)-1-cyanocyclopropane-1-carboxamide]
1 | COc1nc(N[C@H]2C[C@](C)(NC(=O)C3(C#N)CC3)C2)nn2ccc(-c3ccc4ncnn4c3)c12 [Compound 563, N-((1r,3r)-3-((5-([1,2,4]Triazolo[1,5-a]pyridin-6-yl)-4-methoxypyrrolo[2,1-f][1,2,4]triazin-2-yl)amino)-1-methylcyclobutyl)-1-cyanocyclopropane-1-carboxamide]
3.7 | CC[C@]1(O)CC[C@H](Nc2nc(OC)c3c(-c4ccc5ncnn5c4)ccn3n2)CC1 [Compound 567, (1r,4r)-4-((5-([1,2,4]Triazolo[1,5-a]pyridin-6-yl)-4-methoxypyrrolo[2,1-f][1,2,4]triazin-2-yl)amino)-1-ethylcyclohexan-1-ol]
6.9 | COc1nc(N[C@@H]2CCNCC2(F)F)nn2ccc(-c3ccc4ncnn4c3)c12 [Compound 575, (R)-5-([1,2,4]Triazolo[1,5-a]pyridin-6-yl)-N-(3,3-difluoropiperidin-4-yl)-4-methoxypyrrolo[2,1-f][1,2,4]triazin-2-amine]
7.3 | COc1nc(N[C@@H]2CCN(C)CC2(F)F)nn2ccc(-c3ccc4ncnn4c3)c12 [Compound 576, (R)-5-([1,2,4]Triazolo[1,5-a]pyridin-6-yl)-N-(3,3-difluoro-1-methylpiperidin-4-yl)-4-methoxypyrrolo[2,1-f][1,2,4]triazin-2-amine]
6.4 | CCN1CC[C@@H](Nc2nc(OC)c3c(-c4ccc5ncnn5c4)ccn3n2)C(F)(F)C1 [Compound 577, (R)-5-([1,2,4]Triazolo[1,5-a]pyridin-6-yl)-N-(1-ethyl-3,3-difluoropiperidin-4-yl)-4-methoxypyrrolo[2,1-f][1,2,4]triazin-2-amine]
8 | COc1nc(N[C@@H]2CCN(C3COC3)CC2(F)F)nn2ccc(-c3ccc4ncnn4c3)c12 [Compound 578, (R)-5-([1,2,4]Triazolo[1,5-a]pyridin-6-yl)-N-(3,3-difluoro-1-(oxetan-3-yl)piperidin-4-yl)-4-methoxypyrrolo[2,1-f][1,2,4]triazin-2-amine]
40.9 | COc1nc(NC23CCC(O)(CC2)C3)nn2ccc(-c3ccc4ncnn4c3)c12 [Compound 582, 4-((5-([1,2,4]Triazolo[1,5-a]pyridin-6-yl)-4-methoxypyrrolo[2,1-f][1,2,4]triazin-2-yl)amino)bicyclo[2.2.1]heptan-1-ol]
2.2 | COc1nc(N[C@H]2C[C@](C)(NC(C)=O)C2)nn2cc(F)c(-c3ccc4ncnn4c3)c12 [Compound 585, N-((1r,3r)-3-((5-([1,2,4]Triazolo[1,5-a]pyridin-6-yl)-6-fluoro-4-methoxypyrrolo[2,1-f][1,2,4]triazin-2-yl)amino)-1-methylcyclobutyl)acetamide]
0.9 | COc1nc(N[C@H]2CC[C@](C)(O)CC2)nn2cc(F)c(-c3ccc4ncnn4c3)c12 [Compound 589, (1r,4r)-4-((5-([1,2,4]Triazolo[1,5-a]pyridin-6-yl)-6-fluoro-4-methoxypyrrolo-[2,1-f][1,2,4]triazin-2-yl)amino)-1-methylcyclohexan-1-ol]
2.9 | C[C@]1(O)CC[C@H](Nc2nc(OCC(F)F)c3c(-c4ccc5ncnn5c4)ccn3n2)CC1 [Compound 616, (1r,4r)-4-((5-([1,2,4]Triazolo[1,5-a]pyridin-6-yl)-4-(2,2-difluoroethoxy)pyrrolo [2,1-f][1,2,4]triazin-2-yl)amino)-1-methylcyclohexan-1-ol]
35.4 | C[C@]1(O)CC[C@H](Nc2nc(OC3COC3)c3c(-c4ccc5ncnn5c4)ccn3n2)CC1 [Compound 621, (1r,4r)-4-((5-([1,2,4]Triazolo[1,5-a]pyridin-6-yl)-4-(oxetan-3-yloxy)pyrrolo[2,1-f][1,2,4]triazin-2-yl)amino)-1-methylcyclohexan-1-ol]
14.1 | COc1nc(N[C@H]2CC[C@](C)(O)CC2)nn2ccc(-c3ccc4nc(C)nn4c3)c12 [Compound 622, (1r,4r)-4-((4-Methoxy-5-(2-methyl-[1,2,4]triazolo[1,5-a]pyridin-6-yl)pyrrolo[2,1-f][1,2,4]triazin-2-yl)amino)-1-methylcyclohexan-1-ol]
5.1 | COc1nc(NC[C@@H]2CNCCO2)nn2ccc(-c3ccc4nnn(C)c4c3)c12 [Compound 623, (S)-4-Methoxy-5-(1-methyl-1H-benzo[d][1,2,3]triazol-6-yl)-N-(morpholin-2-ylmethyl)pyrrolo[2,1-f][1,2,4]triazin-2-amine]
8.6 | CCO[C@H]1C[C@@H](Nc2nc(OC)c3c(-c4ccc5nnn(C)c5c4)ccn3n2)C1 [Compound 624, N-(cis-3-Ethoxycyclobutyl)-4-methoxy-5-(1-methyl-1H-benzo[d][1,2,3]triazol-6-yl)pyrrolo[2,1-f][1,2,4]triazin-2-amine]
2.7 | COc1nc(N[C@@H]2CCN(C)CC2(F)F)nn2ccc(-c3ccc4nnn(C)c4c3)c12 [Compound 626, (R)—N-(3,3-Difluoro-1-methylpiperidin-4-yl)-4-methoxy-5-(1-methyl-1H-benzo[d][1,2,3]triazol-6-yl)pyrrolo[2,1-f][1,2,4]triazin-2-amine]
